# Data from patent publication US11149011B2, “Compounds and methods for IDO and TDO modulation, and indications therefor” (Plexxikon Inc., priority 2018, dated 2021).
# Experiments:
# TDO = biological target: T1, TDO (Homo sapiens, UniProt P48775); test: TDO enzymatic assay; conditions: geometric mean; read-out: TDO GMean: IC50 (μM) (Biochemical Assay)
# T1 construct: His tag (N); made in house; host or cells: E. coli
# How it was run: (§1)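 Kynurenine formed after TCA hydrolysis (30 min, 50 °C) was quantified relative to full-reaction and no-enzyme controls, and IC50s were fitted. TDO reactions used 1 nM enzyme with 350 μM Trp and 0.4 μM methylene blue for 70 min; IDO reactions used 6 nM enzyme, 10 μM Trp, 5 μM methylene blue for 20 min; both at pH 6.5, room temperature.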
# [1] = biological target: T2, IDO1-expressing HEK293 cell clones (Homo sapiens, UniProt P14902); test: Cell based kynurenine assay, IDO1-expressing HEK293 cell clones; conditions: HEK293 cells, 24 hours of incubation, geometric mean; read-out: HEK293 IDO1 Kynurenine GMean IC50 (μM) (Cellular Assay)
# T2 construct: expressed in transfected cells; host or cells: HEK293
# T2 sequence (P14902 whole entry): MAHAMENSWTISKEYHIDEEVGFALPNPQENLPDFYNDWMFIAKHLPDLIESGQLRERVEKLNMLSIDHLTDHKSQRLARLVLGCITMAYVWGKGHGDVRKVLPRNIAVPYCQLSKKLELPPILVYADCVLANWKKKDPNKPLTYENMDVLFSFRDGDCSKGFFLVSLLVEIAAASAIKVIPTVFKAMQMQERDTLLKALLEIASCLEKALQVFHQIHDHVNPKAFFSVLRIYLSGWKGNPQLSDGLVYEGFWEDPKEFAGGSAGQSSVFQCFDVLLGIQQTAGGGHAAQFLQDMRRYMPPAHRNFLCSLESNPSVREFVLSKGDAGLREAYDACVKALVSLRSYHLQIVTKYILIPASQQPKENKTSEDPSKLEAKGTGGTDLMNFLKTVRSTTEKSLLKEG
# How it was run: (§2)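 IC50s come from nonlinear regression of % inhibition of kynurenine in culture supernatant after 24 hours of compound exposure. Controls were 0.2% DMSO-treated cells and media alone. Cells were stable human IDO1- or TDO-expressing HEK293 clones (CMV promoter), plated at 2.5×10^4 per well.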
# IDO1 = biological target: T3, IDO1 (Homo sapiens, UniProt P14902); test: IDO enzymatic assay; format: biochemical; conditions: geometric mean; read-out: IDO1 GMean: IC50 (μM) (Biochemical Assay)
# T3 construct: His tag (N); made in house; host or cells: E. coli
# T3 sequence (P14902 whole entry): as above
# How it was run: as §1
# [2] = biological target: T4, TDO-expressing HEK293 cell clones (Homo sapiens, UniProt P48775); test: Cell based kynurenine assay, TDO-expressing HEK293 cell clones; conditions: HEK293 cells, 24 hours of incubation, geometric mean; read-out: HEK293 TDO Kynurenine GMean IC50 (μM) (Cellular Assay)
# T4 construct: expressed in transfected cells; host or cells: HEK293
# T4 sequence (P48775 whole entry): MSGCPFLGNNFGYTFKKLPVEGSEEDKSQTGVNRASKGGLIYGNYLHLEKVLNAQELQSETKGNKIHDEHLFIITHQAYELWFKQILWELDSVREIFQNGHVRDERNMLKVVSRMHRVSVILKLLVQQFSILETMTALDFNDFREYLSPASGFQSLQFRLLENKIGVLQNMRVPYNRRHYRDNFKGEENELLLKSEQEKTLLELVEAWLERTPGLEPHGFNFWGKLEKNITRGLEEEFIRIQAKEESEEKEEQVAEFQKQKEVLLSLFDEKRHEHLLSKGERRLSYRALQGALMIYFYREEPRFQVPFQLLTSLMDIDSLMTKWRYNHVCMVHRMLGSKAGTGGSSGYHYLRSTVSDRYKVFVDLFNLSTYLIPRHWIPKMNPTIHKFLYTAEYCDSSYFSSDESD
# How it was run: as §2
# T1 sequence (P48775 whole entry): as above
SMILES,IC50 (TDO) [µM],IC50 [1] [µM],IC50 (IDO1) [µM],IC50 [2] [µM]
"CC(C)(C1CCN(C(=O)CN2CCCC2)CC1)[C@H](O)c1cc(Cl)cc2cn[nH]c12 [Compound P-0059, (S)-1-(4-(1-(5-chloro-1H-indazol-7-yl)-1-hydroxy-2-methylpropan-2-yl)piperidin-1-yl)-2-(pyrrolidin-1-yl)ethan-1-one]",0.0001 to 10,0.0001 to 10,0.0001 to 10,0.0001 to 10
"O=C(NCCCF)N1CCC(C(F)(F)C(=O)c2c(F)c(Cl)cc3cn[nH]c23)CC1 [Compound P-0043, 4-(2-(5-chloro-6-fluoro-1H-indazol-7-yl)-1,1-difluoro-2-oxoethyl)-N-(3-fluoropropyl)piperidine-1-carboxamide]",0.0001 to 10,0.0001 to 10,0.0001 to 10,> 10
"O=C(NC1CCC(F)(F)CC1)N1CCC(C(F)(F)C(=O)c2c(F)c(Cl)cc3cn[nH]c23)CC1 [Compound P-0041, 4-(2-(5-chloro-6-fluoro-1H-indazol-7-yl)-1,1-difluoro-2-oxoethyl)-N-(4,4-difluorocyclohexyl)piperidine-1-carboxamide]",0.0001 to 10,0.0001 to 10,0.0001 to 10,0.0001 to 10
"CC(C)(C1CCN(C(=O)NCc2ccncc2)CC1)[C@H](O)c1cc(Cl)cc2cn[nH]c12 [Compound P-0019, (S)-4-(1-(5-chloro-1H-indazol-7-yl)-1-hydroxy-2-methylpropan-2-yl)-N-(pyridin-4-ylmethyl)piperidine-1-carboxamide]",0.0001 to 10,0.0001 to 10,0.0001 to 10,0.0001 to 10
"CC(C)(C1CCN(C(=O)NCc2ncccn2)CC1)[C@H](O)c1cc(Cl)cc2cn[nH]c12 [Compound P-0027, (S)-4-(1-(5-chloro-1H-indazol-7-yl)-1-hydroxy-2-methylpropan-2-yl)-N-(pyrimidin-2-ylmethyl)piperidine-1-carboxamide]",0.0001 to 10,0.0001 to 10,0.0001 to 10,0.0001 to 10
"C[C@H](NC(=O)N1CCC(C(C)(C)[C@H](O)c2cc(Cl)cc3cn[nH]c23)CC1)c1ccccn1 [Compound P-0021, 4-((S)-1-(5-chloro-1H-indazol-7-yl)-1-hydroxy-2-methylpropan-2-yl)-N-((S)-1-(pyridin-2-yl)ethyl)piperidine-1-carboxamide]",0.0001 to 10,0.0001 to 10,0.0001 to 10,0.0001 to 10
"CC(C)(C1CCN(C(=O)N2CCS(=O)(=O)CC2)CC1)[C@H](O)c1cc(Cl)cc2cn[nH]c12 [Compound P-0022, (S)-(4-(1-(5-chloro-1H-indazol-7-yl)-1-hydroxy-2-methylpropan-2-yl)piperidin-1-yl)(1,1-dioxidothiomorpholino)methanone]",0.0001 to 10,0.0001 to 10,0.0001 to 10,0.0001 to 10
"O=C(NC1CC(F)(F)C1)N1CCC(C(F)(F)C(=O)c2c(F)c(Cl)cc3cn[nH]c23)CC1 [Compound P-0040, 4-(2-(5-chloro-6-fluoro-1H-indazol-7-yl)-1,1-difluoro-2-oxoethyl)-N-(3,3-difluorocyclobutyl)piperidine-1-carboxamide]",0.0001 to 10,0.0001 to 10,0.0001 to 10,0.0001 to 10
"CC(C)(C1CCN(C(=O)N[C@H]2CCC[C@H]2O)CC1)[C@H](O)c1cc(Cl)cc2cn[nH]c12 [Compound P-0025, 4-((S)-1-(5-chloro-1H-indazol-7-yl)-1-hydroxy-2-methylpropan-2-yl)-N-((1S,2R)-2-hydroxycyclopentyl)piperidine-1-carboxamide]",0.0001 to 10,0.0001 to 10,0.0001 to 10,0.0001 to 10

# Next, values leading:
IC50 (TDO) [µM],IC50 [1] [µM],IC50 (IDO1) [µM],IC50 [2] [µM],SMILES
0.0001 to 10,> 10,0.0001 to 10,0.0001 to 10,"CC(C)(C1CCN(C(=O)NCCF)CC1)C(O)c1cc(Cl)cc2[nH]ncc12 (stereo not shown) [Compound P-0110, 4-(1-(6-chloro-1H-indazol-4-yl)-1-hydroxy-2-methylpropan-2-yl)-N-(2-fluoroethyl)piperidine-1-carboxamide]"
0.0001 to 10,0.0001 to 10,0.0001 to 10,0.0001 to 10,"CC(C)(C1CCN(C(=O)NCC(F)F)CC1)C(O)c1cc(Cl)cc2[nH]ncc12 (stereo not shown) [Compound P-0091, 4-(1-(6-chloro-1H-indazol-4-yl)-1-hydroxy-2-methylpropan-2-yl)-N-(2,2-difluoroethyl)piperidine-1-carboxamide]"
0.0001 to 10,> 10,0.0001 to 10,0.0001 to 10,"CC(C)(C1CCN(C(=O)NC2(C#N)CC2)CC1)C(O)c1cc(Cl)cc2[nH]ncc12 (stereo not shown) [Compound P-0119, 4-(1-(6-chloro-1H-indazol-4-yl)-1-hydroxy-2-methylpropan-2-yl)-N-(1-cyanocyclopropyl)piperidine-1-carboxamide]"
0.0001 to 10,0.0001 to 10,0.0001 to 10,0.0001 to 10,"CC(C)(C1CCN(C(=O)CCO)CC1)[C@H](O)c1cc(Cl)cc2cn[nH]c12 [Compound P-0134, (S)-1-(4-(1-(5-chloro-1H-indazol-7-yl)-1-hydroxy-2-methylpropan-2-yl)piperidin-1-yl)-3-hydroxypropan-1-one]"
0.0001 to 10,> 10,0.0001 to 10,0.0001 to 10,"CONC(=O)N1CCC(C(C)(C)C(O)c2cc(Cl)cc3[nH]ncc23)CC1 (stereo not shown) [Compound P-0093, 4-(1-(6-chloro-1H-indazol-4-yl)-1-hydroxy-2-methylpropan-2-yl)-N-methoxypiperidine-1-carboxamide]"
0.0001 to 10,0.0001 to 10,0.0001 to 10,0.0001 to 10,"C[C@H](N)C(=O)N1CCC(C(C)(C)[C@H](O)c2cc(Cl)cc3cn[nH]c23)CC1 [Compound P-0127, (S)-2-amino-1-(4-((S)-1-(5-chloro-1H-indazol-7-yl)-1-hydroxy-2-methylpropan-2-yl)piperidin-1-yl)propan-1-one]"
0.0001 to 10,0.0001 to 10,0.0001 to 10,0.0001 to 10,"CN(O)C(=O)N1CCC(C(C)(C)[C@H](O)c2cc(Cl)cc3cn[nH]c23)CC1 [Compound P-0129, (S)-4-(1-(5-chloro-1H-indazol-7-yl)-1-hydroxy-2-methylpropan-2-yl)-N-hydroxy-N-methylpiperidine-1-carboxamide]"
0.0001 to 10,0.0001 to 10,0.0001 to 10,0.0001 to 10,"CC(C)NC(=O)N1CCC(C(C)(C)C(O)c2cc(Cl)cc3[nH]ncc23)CC1 (stereo not shown) [Compound P-0074, 4-(1-(6-chloro-1H-indazol-4-yl)-1-hydroxy-2-methylpropan-2-yl)-N-isopropylpiperidine-1-carboxamide]"
0.0001 to 10,> 10,0.0001 to 10,0.0001 to 10,"CC(C)(C1CCN(C(=O)NCCS(C)(=O)=O)CC1)C(O)c1cc(Cl)cc2[nH]ncc12 (stereo not shown) [Compound P-0085, 4-(1-(6-chloro-1H-indazol-4-yl)-1-hydroxy-2-methylpropan-2-yl)-N-(2-(methylsulfonyl)ethyl)piperidine-1-carboxamide]"
0.0001 to 10,0.0001 to 10,0.0001 to 10,0.0001 to 10,"CC(C)(C1CCN(C(=O)NC[C@H]2CCCO2)CC1)C(O)c1cc(Cl)cc2[nH]ncc12 (stereo partly drawn) [Compound P-0115, 4-(1-(6-chloro-1H-indazol-4-yl)-1-hydroxy-2-methylpropan-2-yl)-N-(((R)-tetrahydrofuran-2-yl)methyl)piperidine-1-carboxamide]"
